“Also recorded” adds a separate entry of the source. Where two headings read alike, the source gives them in different places. Each block holds one molecule with its values, some of them ahead of it. Where a SMILES comes first, the peptide text is derived from it. The star is where a group is joined. Cbz = O=C(OCc1ccccc1)*
Key:
[1] = In vitro ADME: metabolic potential / microsomal stability, species not stated
Protocol: Metabolism (microsome, S9 fraction, CYP450): Liver Cytochrome P450 (CYP450) enzymes are the major route for xenobiotic metabolism and microsomal and hepatocyte stability is the best predictor of pharmacokinetic half-life. Cross-species comparisons of metabolism in liver microsomes can predict potential issues with liver toxicity in humans. Selected active compounds are tested in liver microsomes from efficacy species (mouse), toxicity species (rat, dog, monkey), and humans for metabolic stability.
CMB-003319 was evaluated for its in vitro ADME properties.
Compounds were sent for in vitro ADME tests to evaluate their ADME properties.

[2] = assay type: in vitro ADME; conditions: male, Sprague Dawley, 15 μM, pH 7.4; for % Mean ± S.E. / RR Mean (Response Ratio): rat
[3] = system: proteasome activity (Ubi-YFP degradation); assay: Proteasome activity assay (Ubi-YFP in HeLa cells); assay type: cell-based
Protocol: FIG. 7. Arylsulfanyl pyrazolones prevent MG132-induced accumulation of Ubi-YFP. HeLa cells were co-transfected with Ubi-YFP and CMV-CFP plasmids, treated with 1 μM MG132 and 25 μM arylsulfanyl pyrazolones and Ubi-YFP fluorescence intensity normalized to CFP.
Since the CMB-003299 cytotoxicity of SOD1 protein aggregates may involve inhibition of proteasome activity, compounds that stimulate proteasome activity could reverse or prevent mutant SOD1-induced cytotoxicity. Thus, active compounds were tested for the ability to stimulate proteasome activity using a cell line expressing ubiquitin-conjugated YFP [Ubi-YFP 74]. In these cells, increased proteasome activity causes increased degradation of Ubi-YFP and decreased YFP fluorescence. Conversely, compounds that inhibit proteasome activity increase accumulation of Ubi-YFP and enhanced YFP fluorescence. As expected, MG132 augments YFP fluorescence intensity ˜3-fold compared to untreated controls (FIG. 7). […] Protein aggregates are present in the absence of MG132 and aggregation is suppressed following treatment with a provided compound.
HeLa cells (20,000/chamber) were plated on 8 chambered Tissue-tek coverglass pretreated with 1 mg/ml poly-D-lysine and allowed to adhere for 18 h at 37° C./5% CO2. Cells were transfected with 0.2 μg each CMV-CFP and Ubi-YFP plasmids using Lipofectamine 2000 according to manufacturer's instructions. Cells were allowed to express CFP and Ubi-YFP for 18 h followed by a 6 h incubation with test compounds (25 μM). MG132 (1 μM) was added for a final 18 h incubation and Ubi-YFP degradation assessed by fluorescence microscopy. Fluorescence intensity of CFP and YFP was calculated on a cell-by-cell basis from captured images using AxioVision software (Zeiss). YFP fluorescence was normalized to CFP fluorescence.

[4] = Aqueous solubility; assay type: physicochemical
Protocol: Solubility: Because compounds are stored in DMSO, it is necessary to determine aqueous solubility of initial hit compounds and their analogs. High solubility in aqueous solution is necessary for high GI absorption, bioavailability, and for chemical formulation. Compounds should be soluble in aqueous solution at >10 μg/ml. Solubility of >50 μg/ml is preferred.

[5] = system: Caco-2; assay: In vitro Caco-2 permeability; assay type: in vitro ADME
Protocol: General Permeability: High membrane permeability is required for effective GI absorption and optimal bioavailability. Passive permeability is typically assessed in the PAMPA artificial membrane assay (Kansy et al., J. Med. Chem. 2002, 45(8), 1712-1722). Cell-based permeability determinations using the Caco-2 cell assay are more resource intensive but more predictive of active transport or efflux in vivo (Artursson et al., Adv. Drug. Deliv. Rev. 2001, 46(1-3), 27-43). Caco-2 assays are performed as needed during SAR development.

[6] = In vitro plasma stability; assay type: in vitro ADME
Protocol: Plasma stability: Plasma stability of active compounds is assessed in efficacy species (mouse), toxicity species (rat, dog, monkey), and human cells.

[7] = system: PC12 cells expressing wild-type SOD1; assay: SOD1 protein aggregation, wild type control line; assay type: cell-based; conditions: cells treated with MG132
Protocol: FIGS. 3A-F. Mutant but not wild type SOD1 aggregates in cells treated with the proteasome inhibitor MG132. Fluorescence micrographs of PC12 cells expressing YFP tagged wild type (WT), G93A mutant (G93A), and G85R mutant (G85R)SOD1 proteins (3A-C). The micrographs show the effects of treating cells with 200 nM MG132 for 24 hours (untreated cells are shown in insets on left, 3D-F, respectively). The wild type SOD1 expressing cells are unaffected while cells expressing mutant SOD1 show large perinuclear aggregates.
(§1) In PC12 cells that express wild-type SOD1, SOD1 was diffusely localized throughout the cell (Matsumoto et al., J. Cell. Biol. 2005, 171(1), 75-85). […] Therefore, these effects are likely to be due to MG132-induced proteasome inhibition, and not due to an off-target effect of MG132.

[8] = system: PC12 cells expressing G93A SOD1; assay: Sensitivity of PC12 cells to proteasome inhibitor, calcein-AM viability; assay type: cell-based
Protocol: (§2) FIGS. 1A-C. […] Cell survival was determined using the viability stain calcein-AM.

[9] = system: PC12 cells expressing no SOD1, wild type SOD1 and G85R SOD1; assay: as above; assay type: cell-based
Protocol: as §2

[10] = system: PC12 cells expressing G93A mutant SOD1; assay: Mutant SOD1 protein aggregation; assay type: cell-based; conditions: following treatment with MG132
Protocol: as §1
The identification of a positive control is a crucial step in assay development. Thus, PC12 cells expressing G85R or G93A mutant SOD1 were treated with MG132 to induce protein aggregation, and then co-treated with candidate chemical suppressors of protein aggregation. Two compounds with similar activity were identified in these experiments: geldanamycin and radicicol. Both compounds induce heat shock transcription factor […], which in turn induces the heat shock response (FIG. 4).
Mechanism of action studies have been initiated for provided compounds. provided compounds active in the cytotoxicity protection assay were initially assayed for the ability to prevent SOD1 aggregation using manual, low-throughput methods. […] The ability of provided compounds to induce expression of molecular chaperones was also tested using stably-transfected HeLa cells (HeLa hse-luc) expressing a luciferase reporter gene under the control of the human HSP70 promoter. […]

[11] = system: PC12 cells expressing G85R SOD1; assay: Mutant SOD1 protein aggregation assay; assay type: cell-based; conditions: cells treated with MG132
From the text: Compounds that are active in the above assay could theoretically protect against mutant SOD1-induced cytotoxicity through a number of mechanisms, including the following: 1) compounds could nonspecifically block or reverse protein aggregation via chaperone induction, as observed for radicicol and geldanamycin; 2) compounds could block or reverse the aggregation of a specific aggregated protein form; 3) compounds could interfere with an event downstream of protein aggregation that plays a critical role in mutant SOD1-induced cytotoxicity (e.g., proteasome function); and 4) compounds could act directly on SOD1 in a manner that prevents mutant SOD1 aggregation. These possibilities were tested using an assay that directly measures protein aggregation. In addition, unlike the high throughput cytotoxicity protection assay, the protein aggregation assay is based on G85R SOD1; this broadens the scope of the screening strategy, and should eliminate compounds with highly specific activity (i.e., G93A SOD1 limited) against protein aggregation.
as §1
The identification of a positive control is a crucial step in assay development. Thus, PC12 cells expressing G85R or G93A mutant SOD1 were treated with MG132 to induce protein aggregation, and then co-treated with candidate chemical suppressors of protein aggregation. […]
To allow this assay to be used in a high-throughput manner, a Cellomics Arrayscan® high content microscopy system was used for screening and quantification. […]
Arrayscan images were recorded using a 20× objective and the XF93-TRITC filter set in channel 1 for the Image-iT WGA plasma membrane dye or the XF93-FITC filter set for SOD1-YFP and analyzed using Cellomics spot detector software. […] Data were recorded as spot count (aggregate)/object (cell).

[12] = NADPH dependent rat liver microsomal metabolite study by HPLC; assay type: in vitro ADME; conditions: NADPH dependent rat liver microsomes, up to 60 minutes
Protocol: TC-II-68 and TC-II-70 were proposed as possible metabolites and prepared before the study.
After 0, 5, 10, 20, 40, and 60 minutes incubation with rat liver microsome, 50 μL acetonitrile was added to quench reactions. The reaction mixture was vortexed and incubated in an ice bath for 2 h. The samples were centrifuged to remove the precipitated protein. The supernatant solutions were loaded directly for HPLC analysis.

Structure (SMILES): Cc1cc(SCc2cc(=O)[nH][nH]2)c(Cl)cc1Cl [CMB-003319]
- metabolic potential [1]: medium
- rat liver microsomal stability, in words [2]: poor microsomal stability
- effect on MG132-induced Ubi-YFP fluorescence ([3]; 25 μM compound, 1 μM MG132): strongly inhibit
- aqueous-solubility, in words [4]: medium
- CaCO-2 permeability, in words [5]: medium
- plasma stability, in words [6]: poor

Structure (SMILES): CC(C)C[C@@H](C=O)NC(=O)[C@H](CC(C)C)NC(=O)[C@H](CC(C)C)NC(=O)OCc1ccccc1 [MG132] (Cbz-Leu-Leu-Leu-aldehyde)
- aggregation, in words [7]: no aggregation was observed
- sensitivity of G93A SOD1 cells relative to the other lines [8]: approximately 5 fold
- toxicity, in words ([8]; 100 nM, 48 hours): selectively toxic
- IC50 ([8]; Rattus norvegicus, PC-12, read-out: IC50 of proteasome inhibitor on cell viability): ~75 nM
- toxicity, in words ([9]; 100 nM, 24 hours, any of the cell lines): no toxicity
- IC50 ([9]; Rattus norvegicus, PC-12, cells expressing no SOD1, wild type SOD1 and G85R SOD1, read-out: IC50 of proteasome inhibitor on cell viability): ~400 nM
- cells with protein aggregates [10]: ~75%
- YFP fluorescence intensity compared to untreated controls ([3]; 1 μM): ~3 fold
- cells containing protein aggregates [11]: up to 75%

- % Mean ± S.E. ([2]; 0 min): 100 ± 26.4%
- RR Mean (Response Ratio) ([2]; 0 min): 2.529
- % Mean ± S.E. ([2]; 20 min): 12.4 ± 0.89%
- RR Mean (Response Ratio) ([2]; 20 min): 0.314
Structure (SMILES): O=c1cc(CSc2ccc(Cl)cc2)[nH][nH]1 [TC-I-165, 5-((4-Chlorophenylthio)methyl)-1H-pyrazol-3(2H)-one]
- microsomal metabolites [12]: only TC-II-68 was a direct metabolite; also recorded: the only direct metabolite from TC-I-165 was TC-II-68; also recorded: TC-II-70 is not a metabolite

From patent US9145424B2, “Treatment of amyotrophic lateral sclerosis” (Northwestern University, priority 2008, dated 2015)
